Reference: patent US8337903B2, “Antitumoral agents with a benzophenanthridine structure and formulations containing them” (Indena S.p.A., priority 2008, dated 2012)

Tests used:
colon stem cells = test: in vitro inhibiting activity towards colon stem cells; type: cell-based; conditions: concentration of 200 ng/ml
Text: (§1) Its behaviour towards other oncological stem cells is identical. These alkaloids can consequently be considered new-generation antitumoral agents, which are able to treat human tumors effectively. For tumors of the colon, liver, pancreas and cervix the most appropriate form is the salt with luteic acid dispersed in a suitable vehicle, whereas for the treatment of skin tumors such as melanoma, the salt with a phosphatidic acid can advantageously be administered topically directly to the area affected by the tumor.

melanoma stem cells = test: in vitro inhibiting activity towards melanoma stem cells; type: cell-based; conditions: concentration of 200 ng/ml
Text: as §1

[1] = test system: oropharynx, head and neck tumors, melanoma and cervical tumors; test: treatment of oropharynx, head and neck tumors, melanoma and cervical tumors; type: in vivo; conditions: oral and topical administration; compared with the unsalified alkaloid
Text: The product most suitable for oral and topical administration is the salt of sanguinarine with luteic acid.

## luteic acid sanguinarine salt [salt of sanguinarine with luteic acid]
Colon stem cells
  inhibiting activity towards colon stem cells: potent inhibiting activity
Melanoma stem cells
  inhibiting activity towards melanoma stem cells: potent inhibiting activity
[1]
  effectiveness in the treatment of tumors: particularly effective
